In ChEMBL document CHEMBL5329202, “New aryl-/heteroarylpiperazine derivatives of 1,7-dimethyl-8,9-diphenyl-4-azatricyclo[5.2.1.02,6]dec-8-ene-3,5,10-trione: Synthesis and preliminary studies of biological activities” (Bioorg Med Chem, 2023):

Key:
[1] = biological target: T1, 5-hydroxytryptamine receptor 1A (Rattus norvegicus) (UniProt P19327); assay: Agonist activity at Sprague-Dawley rat hippocampal membrane 5-HT1A receptor assessed as stimulation of [35S]GTPgammaS binding by measuring maximal efficacy measured after 90 mins by scintillation counter analysis relative to control; format: functional, cell membranes; details: Hippocampus, filed as agonist
T1 sequence (whole entry): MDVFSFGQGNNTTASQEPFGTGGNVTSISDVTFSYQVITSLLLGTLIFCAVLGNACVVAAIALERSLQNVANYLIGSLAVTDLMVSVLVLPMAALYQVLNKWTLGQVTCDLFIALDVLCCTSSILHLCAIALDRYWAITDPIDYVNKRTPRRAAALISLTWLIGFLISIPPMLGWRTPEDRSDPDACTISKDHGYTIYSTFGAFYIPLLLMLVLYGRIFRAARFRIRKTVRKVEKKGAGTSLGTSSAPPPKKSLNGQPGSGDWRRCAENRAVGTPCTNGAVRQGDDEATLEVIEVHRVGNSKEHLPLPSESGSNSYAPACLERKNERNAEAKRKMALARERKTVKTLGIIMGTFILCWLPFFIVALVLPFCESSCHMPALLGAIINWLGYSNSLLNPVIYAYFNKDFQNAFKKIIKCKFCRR

MDA-MB-231 = assay: Cytotoxicity against human MDA-MB-231 cells assessed as cell growth inhibition measured after 72 hrs by MTT assay; format: functional, cell-based; details: MDA-MB-231, 72 h
[2] = Cytotoxicity against human HMEC-1 cells assessed as cell growth inhibition measured after 72 hrs by MTT assay; format: toxicity, cell-based
HCT-116 = assay: Cytotoxicity against human HCT-116 cells assessed as cell growth inhibition measured after 72 hrs by MTT assay; format: functional, cell-based; details: HCT-116, 72 h
A549 = assay: Cytotoxicity against human A549 cells assessed as cell growth inhibition measured after 72 hrs by MTT assay; format: functional, cell-based; details: A549, 72 h
HepG2 = assay: Cytotoxicity against human HepG2 cells assessed as cell growth inhibition measured after 72 hrs by MTT assay; format: functional, cell-based; details: HepG2, 72 h
K562 = assay: Cytotoxicity against human K562 cells assessed as cell growth inhibition measured after 72 hrs by MTT assay; format: functional, cell-based; details: K562, 72 h

SMILES | Emax [1] | IC50 (MDA-MB-231) | IC50 at 72 h [2] | IC50 (HCT-116) | IC50 (A549) | IC50 (HepG2) | IC50 (K562)
CCCN(CCC)C1CCc2cccc(O)c2C1 (configuration not stated) | 148% | – | – | – | – | – | –
COc1cccc2c1C(=O)c1c(O)c3c(c(O)c1C2=O)C[C@@](O)(C(=O)CO)C[C@@H]3O[C@H]1C[C@H](N)[C@H](O)[C@H](C)O1 [DOXORUBICIN] | – | 120 nM | 500 nM | 960 nM | 240 nM | 290 nM | 210 nM
